Measured values taken from patent US20230015949A1, “NEISSERIA TREATMENT USING CANNABINOIDS” (priority 2019, published 2023).
≈ marks a conversion by molar mass, not a printed value.

What was measured:
Neisseria gonorrhoeae = test: Agar dilution MIC assay, 25 isolates (Example 3); assay type: cell-based; conditions: for Number of isolates at MIC 0.015 μg mL^−1 / Number of isolates at MIC 0.03 μg mL^−1 / Number of isolates at MIC 0.06 μg mL^−1 / Number of isolates at MIC 0.08 μg mL^−1 / Number of isolates at MIC 0.12 μg mL^−1 / Number of isolates at MIC 0.25 μg mL^−1 / Number of isolates at MIC 0.5 μg mL^−1 / Number of isolates at MIC 1 μg mL^−1 / Number of isolates at MIC 2 μg mL^−1 / Number of isolates at MIC 4 μg mL^−1 / Number of isolates at MIC 8 μg mL^−1 / Number of isolates at MIC >8 μg mL^−1 / Number of isolates at MIC ≤0.004 μg mL^−1: 25 isolates, agar dilution assay, MIC distribution; for MIC / MIC50 / MIC90: Neisseria gonorrhoeae, agar dilution; for MIC50 / MIC90: 25 isolates of N. gonorrhoeae
Description: The MIC of Neisseria gonorrhoea was established using an agar dilution MIC assay.
Test drugs were provided by Micromyx. All stock solutions were allowed to stand for at least 1 hr prior to use to auto-sterilize. Leftover stock solutions of comparator drugs were aliquoted and stored at −80° C. Suppliers, catalog/lot numbers, solvents, stock concentrations and testing ranges were as follows.
Test organisms were reference strains from the American Type Culture Collection (ATCC; Manassas, Va.), isolates from WHO, isolates from the CDC antibiotic resistance bank, and clinical isolates from the Micromyx (MMX) repository. Upon receipt at Micromyx, the isolates were streaked under suitable conditions onto agar medium appropriate to each organism and were incubated for 24-48 hr at 35° C. Colonies harvested from these growth plates were resuspended in the appropriate medium containing a cryoprotectant. Aliquots of each suspension were then frozen at −80° C.
Prior to testing, the isolates were sub-cultured onto Chocolate agar (Becton Dickenson [BD]/BBL; Sparks, Md., Cat. No. 221267, Lot No. 9346275) and placed at 35° C. in a CO2 incubator for 24 hrs.
MIC values were determined using the agar dilution method (1, 2). All serial dilutions and liquid handling were performed by hand using sterile pipettes. […] Cannabidiol was prepared as a stock solution at 100× the final concentration in the appropriate solvent and diluted according to CLSI guidelines.
Each test agent was mixed with molten (50-55° C.) GC media agar supplemented with 1% IsoVitalex. […] All other test agents were added to the medium in a ratio of 0.2 mL 100× test agent to 19.8 mL agar. Once test agents were added to the agar in a sterile tube, they were mixed gently and then poured into a sterile 110×15 mm petri dish. Plates were allowed to solidify at room temperature and placed in a laminar air flow hood with the covers off to remove condensed moisture on the agar surface.
Next, each isolate was suspended to the equivalent of a 0.5 McFarland standard in saline using a Siemens Microscan turbidity meter and diluted 1:10. Each bacterial cell suspension was then transferred to wells in a stainless-steel replicator block. The prongs on the replicator deliver approximately 1-2 μl of inoculum to an agar surface. The resulting inoculum spots contained approximately 10^4 cells/spot.
Each agar plate containing either test compound or no drug (control) was stamped with the replicator. All plates were placed with the agar surface up to allow for the inoculum to soak into the agar. The plates were inverted and incubated at 35° C. for 24 hrs in a CO2 incubator and finally inspected for growth.

[1] = Un-inoculated solubility control plate, drug precipitation; assay type: physicochemical; conditions: Neisseria test medium and CAMHB
[2] = ATCC49226, N. gonorrhoeae ATCC 49226 (QC)
[3] = N. gonorrhoeae MMX 10409 (CIP-R)
[4] = NCTC13477, N. gonorrhoeae NCTC 13477 (WHO F)
[5] = NCTC13478, N. gonorrhoeae NCTC 13478 (WHO G)
[6] = NCTC13479, N. gonorrhoeae NCTC 13479 (WHO K)
[7] = NCTC13480, N. gonorrhoeae NCTC 13480 (WHO L)
[8] = NCTC13481, N. gonorrhoeae NCTC 13481 (WHO M)
[9] = NCTC13482, N. gonorrhoeae NCTC 13482 (WHO N)
[10] = NCTC13483, N. gonorrhoeae NCTC 13483 (WHO O)
[11] = NCTC13817, N. gonorrhoeae NCTC 13817 (WHO U)
[12] = NCTC13818, N. gonorrhoeae NCTC 13818 (WHO V)
[13] = NCTC13819, N. gonorrhoeae NCTC 13819 (WHO W)
[14] = NCTC13820, N. gonorrhoeae NCTC 13820 (WHO X)

For `C=C(C)C1CCC(C)=CC1c1c(O)cc(CCCCC)cc1O` (centres unmarked) [CBD, 2-[3-methyl-6-(1-methylethenyl)-2-cyclohexen-1-yl]-5-pentyl-1,3-benzenediol], the “Number of isolates at MIC 0.015 μg mL^−1” value (Neisseria gonorrhoeae) was 0, the “Number of isolates at MIC 0.03 μg mL^−1” value (Neisseria gonorrhoeae) was 0 and the “Number of isolates at MIC 0.06 μg mL^−1” value (Neisseria gonorrhoeae) was 0. For the same compound, the “Number of isolates at MIC 0.08 μg mL^−1” value (Neisseria gonorrhoeae) was 0, the “Number of isolates at MIC 0.12 μg mL^−1” value (Neisseria gonorrhoeae) was 0 and the “Number of isolates at MIC 0.25 μg mL^−1” value (Neisseria gonorrhoeae) was 0. The “Number of isolates at MIC 0.5 μg mL^−1” value (Neisseria gonorrhoeae) was 2, the “Number of isolates at MIC 1 μg mL^−1” value (Neisseria gonorrhoeae) was 14 and the “Number of isolates at MIC 2 μg mL^−1” value (Neisseria gonorrhoeae) was 9. The “Number of isolates at MIC 4 μg mL^−1” value (Neisseria gonorrhoeae) was 0, the “Number of isolates at MIC 8 μg mL^−1” value (Neisseria gonorrhoeae) was 0 and the “Number of isolates at MIC >8 μg mL^−1” value (Neisseria gonorrhoeae) was 0. The “Number of isolates at MIC ≤0.004 μg mL^−1” value (Neisseria gonorrhoeae) was 0, the MIC (Neisseria gonorrhoeae; [2]) was 2 µg/mL (≈ 6.36 µM) and the MIC (Neisseria gonorrhoeae; N. gonorrhoeae CDC0165) was 2 µg/mL (≈ 6.36 µM). For the same compound, the MIC (Neisseria gonorrhoeae; N. gonorrhoeae CDC0166) was 9 µg/mL (≈ 28.6 µM), the MIC (Neisseria gonorrhoeae; N. gonorrhoeae CDC0167) was 1 µg/mL (≈ 3.18 µM) and the MIC (Neisseria gonorrhoeae; N. gonorrhoeae CDC 0172) was 7 µg/mL (≈ 22.3 µM). The MIC (Neisseria gonorrhoeae; N. gonorrhoeae CDC 0175) was 1 µg/mL (≈ 3.18 µM), the MIC (Neisseria gonorrhoeae; N. gonorrhoeae CDC 0177) was 1 µg/mL (≈ 3.18 µM) and the MIC (Neisseria gonorrhoeae; N. gonorrhoeae CDC 0178) was 2 µg/mL (≈ 6.36 µM). For the same compound, the MIC (Neisseria gonorrhoeae; N. gonorrhoeae CDC 0180) was 7 µg/mL (≈ 22.3 µM), the MIC (Neisseria gonorrhoeae; N. gonorrhoeae CDC 0181) was 0.5 µg/mL (≈ 1.59 µM) and the MIC (Neisseria gonorrhoeae; N. gonorrhoeae CDC 0194) was 1 µg/mL (≈ 3.18 µM). It also gave an MIC (Neisseria gonorrhoeae; N. gonorrhoeae CDCO174) of 2 µg/mL (≈ 6.36 µM), an MIC (Neisseria gonorrhoeae; [3]) of 1 µg/mL (≈ 3.18 µM) and an MIC (Neisseria gonorrhoeae; [4]) of 1 µg/mL (≈ 3.18 µM). For the same compound, the MIC (Neisseria gonorrhoeae; [5]) was 1 µg/mL (≈ 3.18 µM), the MIC (Neisseria gonorrhoeae; [6]) was 0.5 µg/mL (≈ 1.59 µM) and the MIC (Neisseria gonorrhoeae; [7]) was 2 µg/mL (≈ 6.36 µM). The MIC (Neisseria gonorrhoeae; [8]) was 1 µg/mL (≈ 3.18 µM), the MIC (Neisseria gonorrhoeae; [9]) was 1 µg/mL (≈ 3.18 µM) and the MIC (Neisseria gonorrhoeae; [10]) was 1 µg/mL (≈ 3.18 µM). For the same compound, the MIC (Neisseria gonorrhoeae; NCTC13484, N. gonorrhoeae NCTC 13484 (WHO P)) was 7 µg/mL (≈ 22.3 µM), the MIC (Neisseria gonorrhoeae; [11]) was 1 µg/mL (≈ 3.18 µM) and the MIC (Neisseria gonorrhoeae; [12]) was 1 µg/mL (≈ 3.18 µM). For the same compound, the MIC (Neisseria gonorrhoeae; [13]) was 1 µg/mL (≈ 3.18 µM), the MIC (Neisseria gonorrhoeae; [14]) was 1 µg/mL (≈ 3.18 µM) and the MIC50 (Neisseria gonorrhoeae) was 1 µg/mL (≈ 3.18 µM). The MIC90 (Neisseria gonorrhoeae) was 2 µg/mL (≈ 6.36 µM) and the “Concentration at which precipitation was seen” value [1] was at least 8000 ng/mL.

In the case of `CO/N=C(\C(=O)N[C@@H]1C(=O)N2C(C(=O)O)=C(CSc3nc(=O)c(=O)[nH]n3C)CS[C@H]12)c1csc(N)n1` [CRO, ceftriaxone], the “Number of isolates at MIC 0.015 μg mL^−1” value (Neisseria gonorrhoeae) was 6, the “Number of isolates at MIC 0.03 μg mL^−1” value (Neisseria gonorrhoeae) was 1 and the “Number of isolates at MIC 0.06 μg mL^−1” value (Neisseria gonorrhoeae) was 6. For the same compound, the “Number of isolates at MIC 0.08 μg mL^−1” value (Neisseria gonorrhoeae) was 5, the “Number of isolates at MIC 0.12 μg mL^−1” value (Neisseria gonorrhoeae) was 1 and the “Number of isolates at MIC 0.25 μg mL^−1” value (Neisseria gonorrhoeae) was 2. For the same compound, the “Number of isolates at MIC 0.5 μg mL^−1” value (Neisseria gonorrhoeae) was 0, the “Number of isolates at MIC 1 μg mL^−1” value (Neisseria gonorrhoeae) was 0 and the “Number of isolates at MIC 2 μg mL^−1” value (Neisseria gonorrhoeae) was 1. The “Number of isolates at MIC 4 μg mL^−1” value (Neisseria gonorrhoeae) was 0, the “Number of isolates at MIC 8 μg mL^−1” value (Neisseria gonorrhoeae) was 0 and the “Number of isolates at MIC >8 μg mL^−1” value (Neisseria gonorrhoeae) was 0. For the same compound, the “Number of isolates at MIC ≤0.004 μg mL^−1” value (Neisseria gonorrhoeae) was 3, the MIC (Neisseria gonorrhoeae; [2]) was 0.015 µg/mL (≈ 0.027 µM) and the MIC (Neisseria gonorrhoeae; N. gonorrhoeae CDC0165) was 0.06 µg/mL (≈ 0.108 µM). For the same compound, the MIC (Neisseria gonorrhoeae; N. gonorrhoeae CDC0167) was 0.004 µg/mL (≈ 0.00721 µM), the MIC (Neisseria gonorrhoeae; N. gonorrhoeae CDC 0175) was 0.008 µg/mL (≈ 0.0144 µM) and the MIC (Neisseria gonorrhoeae; N. gonorrhoeae CDC 0177) was 0.015 µg/mL (≈ 0.027 µM). For the same compound, the MIC (Neisseria gonorrhoeae; N. gonorrhoeae CDC 0178) was 0.06 µg/mL (≈ 0.108 µM), the MIC (Neisseria gonorrhoeae; N. gonorrhoeae CDC 0181) was 0.008 µg/mL (≈ 0.0144 µM) and the MIC (Neisseria gonorrhoeae; N. gonorrhoeae CDC 0194) was 0.25 µg/mL (≈ 0.451 µM). It also gave an MIC (Neisseria gonorrhoeae; N. gonorrhoeae CDCO174) of 0.06 µg/mL (≈ 0.108 µM), an MIC (Neisseria gonorrhoeae; [3]) of 0.06 µg/mL (≈ 0.108 µM) and an MIC (Neisseria gonorrhoeae; [4]) of under 0.004 µg/mL. The MIC (Neisseria gonorrhoeae; [5]) was 0.015 µg/mL (≈ 0.027 µM), the MIC (Neisseria gonorrhoeae; [6]) was 0.015 µg/mL (≈ 0.027 µM) and the MIC (Neisseria gonorrhoeae; [7]) was 0.25 µg/mL (≈ 0.451 µM). For the same compound, the MIC (Neisseria gonorrhoeae; [8]) was 0.008 µg/mL (≈ 0.0144 µM), the MIC (Neisseria gonorrhoeae; [9]) was 0.008 µg/mL (≈ 0.0144 µM) and the MIC (Neisseria gonorrhoeae; [10]) was 0.015 µg/mL (≈ 0.027 µM). For the same compound, the MIC (Neisseria gonorrhoeae; [11]) was 0.002 µg/mL (≈ 0.00361 µM), the MIC (Neisseria gonorrhoeae; [12]) was 0.015 µg/mL (≈ 0.027 µM) and the MIC (Neisseria gonorrhoeae; [13]) was 0.12 µg/mL (≈ 0.216 µM). It also gave an MIC (Neisseria gonorrhoeae; [14]) of 2 µg/mL (≈ 3.61 µM), an MIC50 (Neisseria gonorrhoeae) of 0.015 µg/mL (≈ 0.027 µM) and an MIC90 (Neisseria gonorrhoeae) of 0.25 µg/mL (≈ 0.451 µM).
